# Measurements: patent US20120115802A1, “Method for using ulipristal acetate with cytochrome isozyme modulators” (LABORATOIRE HRA PHARMA, priority 2010, published 2012)
# How the values were obtained:
# [1] = used within 72 hours of unprotected intercourse; cited from earlier work
# [2] = Metabolism in liver microsomal preparations; type: in vitro ADME, mice, rats, rabbits, dogs, monkeys and humans; conditions: in vitro
# Source text: Metabolism of ulipristal acetate was investigated in vitro in liver microsomal preparations from mice, rats, rabbits, dogs, monkeys and humans.
structure (smiles),measurement,setting,value
"CC(=O)O[C@]1(C(C)=O)CC[C@H]2[C@@H]3CCC4=CC(=O)CCC4=C3[C@@H](c3ccc(N(C)C)cc3)C[C@@]21C [ulipristal acetate, 17α-acetoxy-11β-[4-N,N-dimethylamino-phenyl)-19-norpregna-4,9-diene-3,20-dione]",Efficacy for preventing pregnancy compared with levonorgestrel,[1],as efficacious as levonorgestrel
same,Metabolites produced in liver microsomes across species,"[2]; liver microsomes from mice, rats, rabbits, dogs, monkeys and humans, proportions varied between species",All species produced the same two major metabolites
same,Metabolite unique to humans,"[2]; liver microsomes, humans compared with the other species",No metabolite was detected which was unique to humans
